Experiments:
Assay type in all cases: cell-based
[1] = tested on: lateral bud (meristematic) explant of Piper longum; test: Induction of rhizogenesis from lateral bud explants on culture initiation medium (MS + NAA)
Description: Preparing culture initiation medium by using MS basal medium described by Murashige and Skoog in 1968. To the MS basal medium, sucrose (2-4%), agar powder (0.7-1.2%), 100 mg/L myo-inositol and Naphthalene Acetic Acid (NAA) (0.01-0.5 mg/L) was added. This medium was autoclaved at 15 psi for 20 min and then cooled to solidify at room temperature.
Using sterilized forceps, each isolated and surface sterilized lateral bud was inoculated in a test tube containing 15 ml of above-mentioned medium; by placing the cut end of the lateral buds touching the medium.
Incubating the inoculated explants in dark at 23° C. +/−1° C. for 7-15 days. By this time, 6-7 root primordia appear from the basal cut end of all the lateral buds.
Transferring incubated cultures in light having 2000-4000 lux light intensity.
A photoperiod of 16 hours was provided followed by a dark period of 8 hours daily.
Allowing each root to grow to an average size of […] in 45 days.
A lateral bud (meristematic) explant from any position of a young or mature plant of Piper longum was taken and cultured in an MS basal medium supplemented with sucrose (2-4%), NAA (0.1-0.5 mg/l) and gelled with agar (0.7-1.2%). These were incubated in dark for 10 days at 23° C.±1° C. and transferred to a light intensity of 1000-3000 lux for 16 Hrs. followed by 8 Hrs. dark period resulting into rhizogenesis, producing 6-7 root like organs, by direct organogenosis from meristematic tissues of lateral buds, which grew up to 1.5 cm in length by 45th day of isolation.

[2] = tested on: regenerated shoots of Piper longum; test: Rooting of regenerated shoots on MS medium with IBA; settings: IBA 0.1-3.1 mg/L
Description: 2.5-3 cm long shoots with 2-3 nodes were carefully separated from the culture clumps using a sterile scalpel under LF.
Sub-culturing 10 separated shoots in a wide mouthed bottle containing MS basal medium fortified with Indole Butyric Acid (IBA) (1-3 mg/L), 2-4% sucrose, 100 mg/L myo-inositol and 0.7-1.2% agar.
Rooting of the regenerated shoots under reduced light 1000-3000 Lux for 28 days. Photoperiod and temperatures remains the same as before.

[3] = tested on: root segments (rhizogenic tissues) of Piper longum; test: Shoot bud proliferation from root segments on MS medium with BAP; settings: 23° C.
Description: Sub-culturing the 18 root segments separately onto MS basal medium supplemented with Benzyl Amino Purine (BAP) (0.5-3 mg/L), 2-4% sucrose, 100 mg/l myo-inositol and 0.7-1.2% agar for solidifying the medium.
Cultures were kept at 23° C. +/−1° C. under 2000-4000 Lux light intensity for a photoperiod of 16 hours followed by a dark period of 8 hours.
Each segment produced 50-55 adventitious shoot buds i.e. (18×50=900 shoot buds).

Naphthalene Acetic Acid [NAA]
root primordia appearing from the basal cut end of the lateral buds ([1]; NAA 0.01-0.5 mg/L in MS basal medium, dark, 23° C. +/−1° C., 7-15 days): 6-7
root like organs produced by direct organogenesis (rhizogenesis) ([1]; NAA 0.1-0.5 mg/l in MS basal medium, 10 days dark at 23° C., then 1000-3000 lux 16 Hrs./8 Hrs. dark): 6-7
length of root like organs ([1]; NAA 0.1-0.5 mg/l, by 45th day of isolation): up to 1.5 cm

Indole Butyric Acid [IBA]
response of separated shoots (rooting) [2]: All separated shoots were responsive
root system from the basal cut ends of shoots ([2]; in 4 weeks time): produced healthy root system

c1ccc(CNc2ncnc3[nH]cnc23)cc1 [BAP, Benzylaminopurine]
adventitious shoot buds produced per root segment ([3]; BAP 0.5-3 mg/L in MS basal medium, 2000-4000 Lux, 16 hours photoperiod): 50-55
adventitious shoot bud formation ([3]; BAP 0.5-3 mg/L, 0.5 cm long root segments, 2000-4000 lux, 16 Hrs. light/8 Hrs. dark): adventitious shoot bud formation from all the root segments
